We go through 15 compounds from patent US4845195A, “Inhibitor of ribonucleotide reductase” (Merck & Co., Inc., priority 1987, dated 1989).

Ends that are not written are not given here. Peptide text beside a SMILES is read from it. * marks the point of attachment. Desaminotyrosyl = O=C(CCc1ccc(O)cc1)*

Assay [1] addresses T1, Herpes Simplex Virus Ribonucleotide Reductase (Human herpesvirus 2, UniProt P89462).
T1 construct: HSV RR was purified from Baby Hamster Kidney cells that were cultured with HSV2 Strain 186; made in house; host or cells: Baby Hamster Kidney cells infected with HSV2 Strain 186
Kind of assay: Assay of Inhibition of HSV RR Activity (reduction of tritiated cytidine-diphosphate). It is filed as biochemical, HSV2 Strain 186. Conditions: 30 minutes at 37°C, dithiothreitol and MgCl2, enzyme not preincubated with inhibitor; read-out: IC50 (μM concentration of peptide producing 50% inhibition of enzyme activity). As to the method: After infection, cells were harvested and lysed. Crude HSV RR was prepared as described by Huszar et al., J. Virol.
HSV RR activity was determined as the ability of the enzyme to catalyze the reduction of tritiated cytidine-diphosphate to deoxyribo-cytidinediphosphate in 30 minutes at 37°C. in the presence of dithiothreitol and MgCl2. Activity of oligopeptide inhibitors was determined by adding them to the reaction mix at the beginning of the incubation. Enzyme was not preincubated with inhibitor.
These were analyzed for amino acid composition and in some cases sequenced. Dry peptides were resuspended in 100 mM HEPES (pH 8.0) at about 2mM, relyophilized, and stored in aliquots at -80° C. Immediately prior to use they were rehydrated with distilled H2 O and centrifuged to remove any undissolved peptide.

The target in assay [2] is ribonucleotide reductase enzyme of herpes simplex virus (Human herpesvirus 1, UniProt P08543). The following applies: Nature 321:439-441 and 441-443 (1986); cited from earlier work.
Chain of ribonucleotide reductase enzyme of herpes simplex virus (P08543 whole entry): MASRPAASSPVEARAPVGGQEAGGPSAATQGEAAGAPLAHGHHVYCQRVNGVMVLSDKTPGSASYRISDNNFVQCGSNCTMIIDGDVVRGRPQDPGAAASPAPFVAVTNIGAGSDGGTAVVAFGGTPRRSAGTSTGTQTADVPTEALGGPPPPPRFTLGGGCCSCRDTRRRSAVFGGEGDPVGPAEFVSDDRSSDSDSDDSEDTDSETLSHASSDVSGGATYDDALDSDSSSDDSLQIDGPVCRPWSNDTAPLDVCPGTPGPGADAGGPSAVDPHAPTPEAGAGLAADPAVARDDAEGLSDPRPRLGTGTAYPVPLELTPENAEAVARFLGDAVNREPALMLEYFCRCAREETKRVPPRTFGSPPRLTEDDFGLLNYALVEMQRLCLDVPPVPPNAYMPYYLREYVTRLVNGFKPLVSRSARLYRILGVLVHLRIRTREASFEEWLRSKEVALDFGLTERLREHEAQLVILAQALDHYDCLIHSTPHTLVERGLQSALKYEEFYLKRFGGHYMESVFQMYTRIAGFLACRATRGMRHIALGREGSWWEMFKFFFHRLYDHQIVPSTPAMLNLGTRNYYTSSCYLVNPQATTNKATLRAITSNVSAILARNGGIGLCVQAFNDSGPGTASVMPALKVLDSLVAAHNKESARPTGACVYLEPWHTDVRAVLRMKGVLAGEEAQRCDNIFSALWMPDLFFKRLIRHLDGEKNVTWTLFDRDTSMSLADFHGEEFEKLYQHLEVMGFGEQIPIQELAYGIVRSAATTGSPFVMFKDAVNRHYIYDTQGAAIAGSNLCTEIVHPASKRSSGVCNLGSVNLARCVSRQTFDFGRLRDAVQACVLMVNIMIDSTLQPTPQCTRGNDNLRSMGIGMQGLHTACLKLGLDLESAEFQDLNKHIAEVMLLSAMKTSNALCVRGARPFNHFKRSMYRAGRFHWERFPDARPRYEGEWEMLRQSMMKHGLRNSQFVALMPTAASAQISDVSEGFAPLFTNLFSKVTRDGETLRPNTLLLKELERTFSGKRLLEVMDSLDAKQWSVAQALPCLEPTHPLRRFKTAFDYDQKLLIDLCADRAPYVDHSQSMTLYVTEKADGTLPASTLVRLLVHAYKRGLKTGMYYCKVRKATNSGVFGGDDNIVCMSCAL

T1 sequence (P89462 whole entry): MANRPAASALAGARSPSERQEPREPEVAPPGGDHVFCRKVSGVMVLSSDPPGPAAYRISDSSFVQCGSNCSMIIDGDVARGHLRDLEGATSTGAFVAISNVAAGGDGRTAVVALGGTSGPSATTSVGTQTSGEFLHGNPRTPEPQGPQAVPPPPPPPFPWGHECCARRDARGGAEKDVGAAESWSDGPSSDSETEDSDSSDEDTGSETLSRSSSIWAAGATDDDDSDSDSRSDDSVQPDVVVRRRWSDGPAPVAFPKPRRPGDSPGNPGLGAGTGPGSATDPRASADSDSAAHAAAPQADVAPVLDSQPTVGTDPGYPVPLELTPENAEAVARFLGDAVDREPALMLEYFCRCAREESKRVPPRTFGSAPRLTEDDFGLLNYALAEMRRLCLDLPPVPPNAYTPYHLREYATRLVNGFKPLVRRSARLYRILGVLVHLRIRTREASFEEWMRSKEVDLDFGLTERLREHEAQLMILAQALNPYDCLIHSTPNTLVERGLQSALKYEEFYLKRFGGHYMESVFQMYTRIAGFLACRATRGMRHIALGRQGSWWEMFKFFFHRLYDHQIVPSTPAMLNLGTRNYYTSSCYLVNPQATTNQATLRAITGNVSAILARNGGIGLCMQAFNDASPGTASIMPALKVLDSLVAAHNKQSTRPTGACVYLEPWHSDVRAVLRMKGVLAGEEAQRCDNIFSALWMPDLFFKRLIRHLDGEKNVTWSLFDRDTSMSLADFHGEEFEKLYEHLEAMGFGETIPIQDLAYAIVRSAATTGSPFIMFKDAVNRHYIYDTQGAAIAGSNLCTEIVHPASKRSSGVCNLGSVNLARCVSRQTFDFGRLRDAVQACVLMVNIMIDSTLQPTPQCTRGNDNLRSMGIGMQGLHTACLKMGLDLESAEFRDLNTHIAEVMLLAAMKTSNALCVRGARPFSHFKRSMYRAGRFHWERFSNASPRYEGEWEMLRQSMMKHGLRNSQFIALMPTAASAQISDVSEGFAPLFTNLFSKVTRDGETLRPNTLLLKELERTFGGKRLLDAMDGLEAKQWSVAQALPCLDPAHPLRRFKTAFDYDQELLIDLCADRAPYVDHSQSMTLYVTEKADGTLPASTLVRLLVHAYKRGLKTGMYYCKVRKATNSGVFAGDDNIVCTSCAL

On to `CC(=O)N[C@@H](Cc1ccc(O)cc1)C(=O)N[C@@H](C)C(=O)NCC(=O)N[C@@H](C)C(=O)N[C@H](C(=O)N[C@H](C(=O)N[C@@H](CC(N)=O)C(=O)N[C@@H](CC(=O)O)C(=O)N[C@@H](CC(C)C)C(=O)O)C(C)C)C(C)C` [AcYAGAVVNDL], for which the IC50 in assay [1] was determined as 5 µM.

In the case of STSYAGAVVNDL [STSYAGAVVNDL], the IC50 in assay [1] was 17 µM. The same measure, in the same setting: to AGAVVNDL [AGAVVNDL] belongs 80 µM; to AVVNDL [AVVNDL], 51 µM; to `CC(C)C[C@H](NC(=O)[C@H](CC(=O)O)NC(=O)[C@H](CC(N)=O)NC(=O)[C@@H](NC(=O)[C@@H](NC(=O)[C@H](C)NC(=O)CNC(=O)[C@H](C)NC(=O)CCc1ccc(O)cc1)C(C)C)C(C)C)C(=O)O` [desNH2--YAGAVVNDL, desNH2-YAGAVVNDL] (Desaminotyrosyl-AGAVVNDL-OH), 20 µM.

With Tyr GVly Ala Val Val Asn Asp Leu, the “inhibition of the activity of the enzyme in vitro” value in assay [2] is “inhibited”.

Turning to Ac-AVVNDL [AcAVVNDL], the IC50 in assay [1] stood at 87 µM. Same read-out and setting: to SYAGAVVNDL [SYAGAVVNDL] belongs 17 µM; to GAVVNDL [GAVVNDL], 70 µM. The same measure, in the same setting: as for TSYAGAVVNDL [TSYAGAVVNDL], the figure is 17 µM. On the same count and under the same terms, to `CC(C)C[C@H](NC(=O)[C@H](CC(=O)O)NC(=O)[C@H](CC(N)=O)NC(=O)[C@@H](NC(=O)[C@@H](NC(=O)[C@H](C)NC(=O)CNC(=O)[C@H](C)NC(=O)[C@@H](N)Cc1ccc(O)cc1)C(C)C)C(C)C)C(=O)O` [YAGAVVNDL, Tyr Ala Gly Ala Val Val Asn Asp Leu, reference compound] belongs 10 µM; to `CC(C)C[C@H](NC(=O)[C@H](CC(=O)O)NC(=O)[C@H](CC(N)=O)NC(=O)[C@@H](NC(=O)[C@@H](N)C(C)C)C(C)C)C(=O)O` [VVNDL, Val Val Asn Asp Leu], 250 µM.

For the compound Ac-GAVVNDL [AcGAVVNDL], the IC50 in assay [1] was determined as 75 µM. On to `CC(C)C[C@H](NC(=O)[C@H](CC(=O)O)NC(=O)[C@H](CC(N)=O)NC(=O)[C@@H](NC(=O)[C@@H](NC(=O)[C@H](C)NC(=O)CNC(=O)[C@H](C)NC(=O)[C@@H](N)Cc1ccc(O)cc1)C(C)C)C(C)C)C(N)=O` [YAGAVVNDL--NH2, YAGAVVNDL-NH2], for which the IC50 in assay [1] turned out to be 75 µM.

Take FPLSLMSTDKHTNFFECRSTSYAGAVVNDL: the IC50 in assay [1] is 8 µM.
